Assay results reported in paper PMC7966503, “Deciphering the Pharmacological Mechanisms of Guizhi-Fuling Capsule on Primary Dysmenorrhea Through Network Pharmacology” (Frontiers in Pharmacology, 2021).
“And” between values parts separate entries of the source, which are not always exact repeats. Equal values may be shown once. Read-outs that look alike come from different tables or passages of the source.

Experiments:
[1] = biological target: T1, recombinant human COX2 (Homo sapiens, UniProt P35354); assay: COX2 activity assay (cyclooxygenase-2 inhibitor screening kit, fluorescence); assay type: biochemical; conditions: duplicated samples
T1 construct: purchased Beyotime #S0168
T1 sequence (P35354 18-604): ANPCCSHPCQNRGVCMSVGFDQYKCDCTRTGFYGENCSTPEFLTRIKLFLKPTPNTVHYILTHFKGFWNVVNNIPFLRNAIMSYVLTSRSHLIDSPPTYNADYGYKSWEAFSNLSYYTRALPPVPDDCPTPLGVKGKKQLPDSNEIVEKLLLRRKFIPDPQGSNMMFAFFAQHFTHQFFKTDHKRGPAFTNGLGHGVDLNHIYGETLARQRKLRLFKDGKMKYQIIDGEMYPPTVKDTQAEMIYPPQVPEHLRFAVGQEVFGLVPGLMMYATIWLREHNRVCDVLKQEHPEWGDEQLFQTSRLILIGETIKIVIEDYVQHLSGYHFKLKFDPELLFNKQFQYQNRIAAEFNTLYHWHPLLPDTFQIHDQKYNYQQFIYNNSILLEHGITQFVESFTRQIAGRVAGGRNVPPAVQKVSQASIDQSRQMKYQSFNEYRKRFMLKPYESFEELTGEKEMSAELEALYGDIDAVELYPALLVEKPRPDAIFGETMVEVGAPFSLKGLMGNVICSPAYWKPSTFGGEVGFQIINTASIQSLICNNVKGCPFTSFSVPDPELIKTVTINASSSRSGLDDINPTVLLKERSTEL
From the text: And then we selected predicted compounds and a specific target for preliminary analysis of their dosages and ratios as a starting point. In vitro enzyme activity assays were used to analyze the relationship between predicted GZFLC compounds’ different dosages and their intervention intensity on a specific target COX2, and to investigate GZFLC’s intervention intensity on COX2 under the specific ratio of GZFLC compounds which is relatively fixed in GZFLC. The content in the GZFLC (Jiangsu Kanion Pharmaceutical Co., Ltd. Jiangsu, China, No. 170601) was weighed and extracted with dimethyl sulfoxide (DMSO, 32.308:1, W/V, mg/ml) at 37°C for 30 min. The liquid was collected by centrifugation, and the supernatant was filtered through a 0.22 μ filter. The effect of GZFLC or pure chemicals including 1,2,3,4,6-penta-O-galloyl-beta-D-glucopyranose (purity (%) ≥98%, CAS: 14,937–32–7, Pubchem CID: 65238, Nanjing SenBeiJia Biological Technology Co., Ltd.), galloylpaeoniflorin (purity (%) ≥98%, CAS: 122,965–41–7, Pubchem CID: 46882879, Nanjing SenBeiJia Biological Technology Co., Ltd.), ethyl gallate (purity (%)≥98%, CAS: 831–61–8, Pubchem CID: 13250, Nanjing SenBeiJia Biological Technology Co., Ltd.) and gallic acid (purity (%)≥98%, CAS: 149–91–7, Pubchem CID: 370, Nanjing SenBeiJia Biological Technology Co., Ltd.) on COX2 activity was measured using cyclooxygenase-2 inhibitor screening kit (Beyotime, Cat. No. #S0168). Briefly, the recombinant human COX2 assay mixture (total volume = 90μL/well) consisting of assay buffer, cofactor, COX2 enzyme, and test compound (diluted in DMSO, 5.56% DMSO finally in assay) was incubated at 25°C for 5 min. Detection of the product was performed by adding probe (5μL/well). Arachidonic acid was added and the reaction was allowed to proceed for 15 min at 37°C. The fluorescence of the resulting solution was measured using SpectraMax M2e multilabel plate reader (Molecular Devices, United Kingdom). […] Data was represented as X¯±SD of duplicated samples. The effect of the samples on COX2 was calculated using the following equation: Relative activity of COX2(%)=(RFUsample−RFUBW/RFUA−RFUBW)×100%.

[2] = test system: oxytocin-induced dysmenorrhea murine model; assay: Writhing response in oxytocin-induced dysmenorrhea murine model; assay type: in vivo, ICR mice; conditions: 0.1 g/kg oral; within 30 min after oxytocin; mean±SEM, n = 10; model group 32.6 ± 8.5
Description: (§1) Oxytocin-induced dysmenorrhea in mice was performed according to the method previously reported ([Sun et al., 2002]). […] Except for the normal group (subcutaneous injection of saline), the other groups were administrated by subcutaneous estradiol benzoate injection (0.05 ml/mouse on the first and 10th day, and 0.025 ml/mouse on the remaining days) for ten consecutive days. […] On the 10th day, oxytocin (0.2 ml/2 IU/mouse) was administered by peritoneal injection 1 h after the last administration. The number of animal writhing times was observed and recorded within 30 min after injection of oxytocin. […] The mice were sacrificed immediately. The uterus tissues were fixed with 10% formalin for further study.

[3] = test system: oxytocin-induced dysmenorrhea murine model; assay: Uterine histopathology (H&E) in oxytocin-induced dysmenorrhea murine model; assay type: in vivo, ICR mice; conditions: ibuprofen 0.1 g/kg; GZFLC 0.54 and 1.08 g/kg oral, seven days
Description: as §1, with “study. The uterus tissues were fixed in 10% formalin and stained with hematoxylin and eosin (H&E). […] According to the severity of the lesion, it was recorded as one point (mild), two points (moderate), three points (severe), four points (extremely severe), no lesion was recorded as 0 point. All scores were accumulated and the average score ( X¯±SD ) of each animal in each group was calculated.” for “study.”

[4] = read-out: IC50, inhibition of the activity of COX2 in vitro (converted)

IC50 [1, 4] | Structure (SMILES) | other results
380 nM and 383 nM | O=C(OC[C@H]1O[C@@H](OC(=O)c2cc(O)c(O)c(O)c2)[C@H](OC(=O)c2cc(O)c(O)c(O)c2)[C@@H](OC(=O)c2cc(O)c(O)c(O)c2)[C@@H]1OC(=O)c1cc(O)c(O)c(O)c1)c1cc(O)c(O)c(O)c1 [1,2,3,4,6-penta-O-galloyl-beta-D-glucopyranose] | –
1110 nM | CCOC(=O)c1cc(O)c(O)c(O)c1 [ethyl gallate] | –
– | O=C(O)c1cc(O)c(O)c(O)c1 [gallic acid] | IC50 ([1]; IC50, inhibition of the activity of COX2 in vitro): 1950 nM and 1940 nM
– | CC(C)Cc1ccc(C(C)C(=O)O)cc1 (stereo not drawn) [ibuprofen] | number of writhing times [2]: 5.9 ± 2.1; degree of uterine lesions (histopathology, H&E) [3]: reducing the degree of uterine lesions

Structure (SMILES) | IC50 [1, 4] | other results
C[C@@]12C[C@@]3(O)O[C@@H](O1)[C@]1(COC(=O)c4ccccc4)[C@H]3C[C@@]12O[C@@H]1O[C@H](COC(=O)c2cc(O)c(O)c(O)c2)[C@@H](O)[C@H](O)[C@H]1O [galloylpaeoniflorin] | 740 nM and 743 nM | –
